The source of these data is the Deep4Chem optical property database.

“And” between values parts separate entries of the source, which are not always exact repeats. Equal values may be shown once.

This data set can be described thus: solvent given as SMILES.
[1] abbreviates: in O=P(c1ccccc1)(c1ccccc1)c1ccccc1Oc1ccccc1P(=O)(c1ccccc1)c1ccccc1.

For the compound `CC[NH+](CC)c1ccc(-c2nc3c4ccccc4n(C)c3nc2-c2ccc(B(c3c(C)cc(C)cc3C)c3c(C)cc(C)cc3C)cc2)cc1`, where the note is “in C1CCOC1”, the emission maximum amounted to 451.19 nm.
For the compound `CN1/C(=C/C=C(/C=C/c2sc3ccccc3[n+]2C)c2ccccc2)Sc2ccccc21`, the emission maximum is, setting by setting: (in CCO) 676 nm; (in CO) 679 nm; (in CS(C)=O) 683 nm; (in O) 673 nm.
On to `O=C1OC(=O)[C@H]2[C@@H]1[C@@H]1C[C@H]2c2c1c(-c1ccccc1)c1ccccc1c2-c1ccccc1`, for which the emission maximum (in ClC(Cl)Cl) was determined as 362 nm.
On to `N#Cc1cccc(C#N)c1-n1c2ccccc2c2cc(-c3ccc4c(c3)c3ccccc3n4-c3c(C#N)cccc3C#N)ccc21`, for which the emission maximum stood at 488 nm (in Cc1ccccc1) and 488 nm under setting [1].
With `COc1ccc2c(c1)[nH]c1c3[nH]c4cc(OC)ccc4c3c3nsnc3c21`, the emission maximum is 544 nm (in CN(C)C=O), 501 nm (in Cc1ccccc1) and 540 nm (in ClCCl).
For `O=Cc1ccc(C#CC(C#Cc2ccc(C=O)o2)=Cc2ccc(C=C(C#Cc3ccc(C=O)o3)C#Cc3ccc(C=O)o3)s2)o1`, under “in ClC(Cl)Cl”, the emission maximum was determined as 577 nm.
Under “in ClCCl”, `CCCCN1C(=O)C2=C(c3ccc(Br)cc3)[N-]C(=O)C2=C1c1ccc(Br)cc1` registered an emission maximum of 613 nm.
The compound `N#Cc1c(-n2c3ccccc3c3ccccc32)cc(N2c3ccccc3C(c3ccccc3)(c3ccccc3)c3ccccc32)cc1-n1c2ccccc2c2ccccc21` had an emission maximum (in Cc1ccccc1) of 471 nm.
`Cc1ccccc1-c1c2ccc(=[N+]3CCN(C(=O)OC(C)(C)C)CC3)cc-2oc2cc(N3CCN(C(=O)OC(C)(C)C)CC3)ccc12`: the emission maximum (in CCO) was 580 nm and the emission maximum (in ClCCl) was 577 nm.
As to `c1ccc2c(-c3cc4c(ccc5sccc54)s3)cccc2c1`, the emission maximum (in ClCCl) is reported as 405 nm.
On to `Cc1ccc2nc3c(nc2c1)c(-c1ccccc1)nn3C`, for which the emission maximum is, setting by setting: (in C1CCCCC1) 472 nm; (in C1CCOC1) 500 nm; (in CC#N) 516 nm.
Regarding `F[B-]1(F)n2c(-c3ccccc3)cc(-c3ccccc3)c2C=C2C(c3ccccc3)=CC(c3ccccc3)=[N+]21`, for the setting “in C1CCOC1”, the emission maximum is on record as 601 nm.
The compound `C(#Cc1ccccc1C#Cc1ccccc1)c1ccccc1` yielded an emission maximum (in CC#N) of 360 nm.
Consider `CC1(C)CC(=O)c2c(F)c(C(F)(F)F)c(F)c(F)c2N1`, for which the emission maximum is reported as 419 nm (in CC#N) and 453 nm (in CCO).
Consider `c1ccc(-c2ccc(-c3nc(-n4c5ccccc5c5ccc6c7ccccc7n(-c7ccccc7)c6c54)nc(-n4c5ccccc5c5ccc6c7ccccc7n(-c7ccccc7)c6c54)n3)cc2)cc1`, for which the emission maximum was found to be 495 nm (in Cc1ccccc1) and 492 nm under setting [1].
`C(#Cc1c2ccccc2c(-c2ccccc2)c2cc3ccccc3cc12)c1ccccc1`: the emission maximum (in ClCCl) turned out to be 541 nm.
For `Cc1cc(C)c(B(c2c(C)cc(C)cc2C)N2c3ccccc3C(C)(C)c3ccccc32)c(C)c1`, the emission maximum is, setting by setting: (in C1CCCCC1) 533 nm; (in Cc1ccccc1) 558 nm; (in ClCCl) 580 nm.
Compound `COc1ccc(-c2cnc3cccc(-c4ccc(C(C)=O)cc4)n23)cc1` registered an emission maximum (in ClCCl) of 537 nm.
Take `CC1(C)c2ccccc2-n2c(-c3ccc(-n4c5ccc(-n6c7ccccc7c7ccccc76)cc5c5cc(-n6c7ccccc7c7ccccc76)ccc54)cc3)nc3cccc1c32`: the emission maximum was found to be 401 nm (in Cc1ccccc1) and 409 nm under setting [1].
In the case of `F[B-]1(F)n2c(nc(-c3ccccc3)c2-c2ccccc2)-c2cccc[n+]21`, the emission maximum (in C1CCCCC1) came to 517 nm; the emission maximum (in C1CCOC1) is 537 nm; the emission maximum (in C1COCCO1) amounted to 510 nm; the emission maximum (in CC#N) was 543 nm and 498 nm; the emission maximum (in CCCCCC) is 510 nm and 515 nm; the emission maximum (in CO) was 525 nm and 534 nm. Besides, the emission maximum runs as follows: (in ClC(Cl)Cl) 520 nm and 528 nm; (in ClCCl) 528 nm.
For the compound `F[B-]1(F)n2c(-c3cccs3)cc(-c3ccccc3)c2N=C2C(c3ccccc3)=CC(c3cccs3)=[N+]21`, the emission maximum by setting is: (in CC#N) 732 nm; (in ClCCl) 740 nm.
Taken in the same sequence, the figures for `CCOC(=O)c1ccc2nc(/N=N/c3ccc(N(CC)CC)cc3)sc2c1` were 582 nm and 571 nm.
`CC(C)(C)c1ccc(-n2c(-c3ccc(-c4ccc(-c5c(-c6ccccc6)nc6ccccn56)cc4)cc3)nc3c4ccccc4c4ccccc4c32)cc1` returned an emission maximum (in ClCCl) of 426 nm.
Compound `CCOC(=O)c1cc(C(=O)OCC)c2cccc(O)c2n1` registered an emission maximum (in CCO) of 527 nm.
Compound `N#C/C(=C\c1cc(/C=C(\C#N)c2ccc(C(F)(F)F)cc2)c(-c2ccc(N(c3ccccc3)c3ccccc3)cc2)cc1-c1ccc(N(c2ccccc2)c2ccccc2)cc1)c1ccc(C(F)(F)F)cc1` came in with an emission maximum (in C1CCCCC1) of 478 nm; an emission maximum (in C1CCOC1) of 587 nm; an emission maximum (in CCCCCC) of 473 nm; an emission maximum (in CCOC(C)=O) of 581 nm; an emission maximum (in Cc1ccccc1) of 515 nm; an emission maximum (in ClC(Cl)Cl) of 553 nm. For the same compound, the emission maximum (in ClCCl) was determined as 594 nm.
On to `C#Cc1ccc2ccc3cccc4ccc1c2c34`, for which the emission maximum reads like this: (in C1CCCCC1) 383 nm; (in CC#N) 384 nm; (in CO) 383 nm; (in ClCCl) 384 nm.
`CCN(C)c1ccc(C2=C3C(C)=CC(C)=[N+]3[B-](F)(F)n3c(C)cc(C)c32)cc1`: the emission maximum (in CO) is reported as 513 nm.
As to `COc1ccc(N(c2ccc(OC)cc2)c2ccc3ccc4c(B(c5c(C)cc(C)cc5C)c5c(C)cc(C)cc5C)ccc5ccc2c3c54)cc1`, the emission maximum is, setting by setting: (in C1CCOC1) 626 nm; (in CC(C)=O) 658 nm; (in CCCCCC) 534 nm; (in Cc1ccccc1) 575 nm; (in ClC(Cl)Cl) 601 nm; (in ClCCl) 633 nm.
For `Cn1ccc(-n2cncn2)nc1=O`, where the note is “in O”, the emission maximum came out at 366 nm.
Consider `CCC1=C(C)C2=Cc3c4ccccc4c4n3[B-](c3ccc5cc6ccccc6cc5c3)(Oc3ccccc3-4)[N+]2=C1C` (stereo not given), for which the emission maximum runs as follows: (in CC#N) 635 nm; (in CCCCCC) 636 nm; (in Cc1ccccc1) 641 nm; (in ClCCl) 639 nm.
With `CCN(CC)c1ccc2c(-c3ccccc3C(=O)[O-])c3ccc(=[N+](CC)CC)cc-3oc2c1`, the emission maximum is reported as 579 nm (in CC#N), 571 nm (in CCO), 588 nm (in CN(C)C=O) and 580 nm (in O).
Under “in ClC(Cl)Cl”, `Cc1ccccc1CN(Cc1ccccc1C)c1nc(C#N)c(N(Cc2ccccc2C)Cc2ccccc2C)nc1C#N` displayed an emission maximum of 582 nm.
In turn, `CC1(C)c2ccccc2-c2cc3c(cc21)c1ccccc1n3-c1ccc2ccccc2n1` registered an emission maximum (in ClCCl) of 438 nm.
On the same count and under the same terms, with `COC(=O)CCC1=CC(C#Cc2ccsc2)=[N+]2C1=Cc1c(CCC(=O)OC)cc(C#Cc3ccsc3)n1[B-]2(F)F` the figure was 653 nm.
Consider `CCC1(CC)c2cc(N(C)C)ccc2-c2ccc(C(F)(F)F)cc21`, for which the emission maximum (in C1CCCCC1) worked out at 360 nm; the emission maximum (in CC#N) is 337 nm; the emission maximum (in CCO) worked out at 388 nm; the emission maximum (in CCOCC) came out at 373 nm; the emission maximum (in CS(C)=O) turned out to be 414 nm; the emission maximum (in ClCCl) was 387 nm. The compound further registered an emission maximum (in c1ccccc1) of 374 nm.
As to `c1ccc(N(c2ccccc2)c2ccc(-c3cccc4nc5ccccc5cc34)cc2)cc1`, the emission maximum stood at 535 nm (in C1CCOC1); 572 nm (in CC#N); 496 nm (in CC(C)OC(C)C); 462 nm (in CCCCCC); 491 nm (in CCCCOCCCC); 479 nm (in CCN(CC)CC). For the same compound, the emission maximum (in CCOC(C)=O) is listed as 532 nm, the emission maximum (in CCOCC) is on record as 507 nm, the emission maximum (in CN(C)C=O) is 566 nm and the emission maximum (in ClCCl) worked out at 555 nm.
For the compound `CCCCCC(CC)C1(C(CC)CCCCC)c2ccccc2-c2ccc(C#Cc3cc(C#Cc4ccc5c(c4)C(C(CC)CCCCC)(C(CC)CCCCC)c4ccccc4-5)c4ccc5c(C#Cc6ccc7c(c6)C(C(CC)CCCCC)(C(CC)CCCCC)c6ccccc6-7)cc(C#Cc6ccc7c(c6)C(C(CC)CCCCC)(C(CC)CCCCC)c6ccccc6-7)c6ccc3c4c65)cc21` (stereo not given), the emission maximum runs as follows: (in C1CCCCC1) 507 nm; (in C1CCOC1) 513 nm; (in CCOC(C)=O) 509 nm; (in CN(C)C=O) 518 nm; (in Cc1ccccc1) 513 nm; (in ClC(Cl)Cl) 514 nm. Under “in ClCCl”, this compound registered an emission maximum of 514 nm.
Where the note is “in C1CCOC1”, `F[B-]1(F)OC(c2ccccc2)=C(c2ccccc2)c2sc3ccccc3[n+]21` yielded an emission maximum of 446 nm.
Compound `COc1ccc2c3ccc(OC)cc3n(-c3ccc(-c4nnc(-c5c(C(C)C)cc(C(C)C)cc5C(C)C)o4)cc3)c2c1` displayed an emission maximum (in Cc1ccccc1) of 437 nm.
In turn, `COC(=O)C1=C(C(=O)OC)C2(c3ccccc3-c3ccccc32)[C@@H](c2ccc(C)cc2)C=C2c3cc(OC)c(OC)cc3CCN21` returned an emission maximum (in ClCCl) of 425 nm.
Where the note is “in ClCCl”, `COc1ccc2cc(/C=C/C3=CC(c4ccccc4)=[O+][B-](F)(F)O3)ccc2c1` returned an emission maximum of 566 nm.
The same measure, in the same setting: with `CC1=C2C=CC(c3ccccc3)=[N+]2[B-](F)(F)n2c1ccc2-c1ccccc1` the figure was 577 nm.
For the setting “in ClC(Cl)Cl”, `CN(C)c1ccc(-c2ccc(-c3cc(-c4ccccc4)c(-c4ccccc4)c(-c4ccccc4)c3-c3ccccc3)nc2)cc1` had an emission maximum of 429 nm.
Compound `CC1(C)c2ccccc2N(c2ccc(-c3ncc(C#N)cn3)cc2)c2ccccc21` had an emission maximum (in Cc1ccccc1) of 543 nm and an emission maximum (in N#Cc1ccc2c(c1)c1ccccc1n2-c1cccc(-n2c3ccccc3c3ccccc32)c1) of 541 nm.
With `CCCC1=Cc2nc1ccc1[nH]c(cc1CCO)c1nc(ccc3[nH]c2cc3CCC)C(CCO)=C1`, where the note is “in Cc1ccccc1”, the emission maximum was found to be 642 nm.
